Reference: patent publication US20190117675A1, “Compositions And Methods To Treat And/Or Prevent Vision Disorders Of The Lens Of The Eye” (Helix Holding Company, priority 2014, published 2019)

How the values were obtained:
[1] = system: aggregates of various WT and mutated crystallins; test: In vitro protein assay: dissociation of preformed crystallin aggregates (turbidity, soluble protein, EM); assay type: biochemical; conditions: 37° C.; for dissociation of aggregates of various WT and mutated crystallins: in vitro protein assay, 50 μM sterol in 50 μM DPPS liposome
Experimental: Evaluation of the effect of lanosterol on the dissolution of crystallin aggregates by turbidity. Crystallin aggregates were formed by incubating 5mgml21 protein solution at 60° C. for 2 h (α-crystallins) or 37° C. for 48 h (β- and γ-crystallins) in the presence of 1M guanidine chloride. The preformed aggregates were re-suspended in PBS at a final protein concentration of 0.2 mg/ml and were treated with 500 μM sterols in 500 μM DPPC liposome and incubated at 37° C. for 24 h. Aggregates treated with 500 μM DPPC liposome only were used as the controls.
The α-crystallin aggregates were formed by incubating 5 mg/ml protein solutions at 60° C. for 48 h in the presence of 1 M guanidine chloride. The β- and γ-crystallin aggregates were prepared by incubating the protein solutions at 37° C. and pH 3 for 48 h. The preformed aggregates were re-suspended in PBS with a final protein concentration of 0.1 mg/ml. The re-suspended aggregates were treated by 50 μM sterols in 50 μM DPPS liposome and incubated at 37° C. for 144 h. The aggregates treated by 50 μM DPPS liposome were used as the controls. The supernatant and precipitation fractions were separated by centrifugation. The protein concentrations in the supernatant fraction were determined by absorbance at 280 nm and the percentages of the soluble proteins were calculated from three independent repetitions.
The recombinant his-tagged WT and mutated β- and γ-crystallin proteins were overexpressed in E. coli Rosetta and purified by Ni-NTA affinity column followed by gel filtration chromatography using the same protocol as those described elsewhere 13,14,16,18. The overexpression and purification of the non-tagged αA- and αB-crystallins were performed as described previously 19. The purity of the proteins were estimated to be above 95% as evaluated by one homogeneous band on 12.5% SDS-PAGE, 10% native-PAGE and a single peak in the size-exclusion chromatographyprofile. The protein concentration was determined according to the Bradford method by using BSA as the standard 20. All protein samples were prepared in 20 mM PBS buffer containing 150 mM NaCl, 1 mM EDTA and 1 mM DTT.
The aggregates of the WT and mutated αA- and αB-crystallin proteins were obtained by heating the proteins solutions containing 1 M guanidine chloride (ultrapure, Sigma) with a concentration of 5 mg/ml at 60° C. for 48 h. The aggregates of the WT and mutated β- and γ-crystallins were prepared by heating the protein solutions at pH 3 and 37° C. for 48 h. The formation of aggregates was confirmed by turbidity (absorbance at 400 nm) and transmission electron microscope (EM) measurements. The preformed aggregates were resuspended in 20 mM PBS with a final concentration of 0.1 mg/ml (approximately 5 μM). The resuspended aggregates were treated by 50 μM lanosterol or cholesterol in liposomes formed by 50 μM DPPS at 37° C. After 72 h treatment, the protein solutions were used for negative-stained EM observations. After 144 h incubation, the protein solutions were used for turbidity measurements and determinations of protein concentrations in the soluble fractions. The soluble proteins were determined by centrifuge the protein solutions to separate the supernatant and precipitation fractions. Then the protein concentration in the supernatant was determined by the Bradford method. The EM samples were prepared by depositing the protein solutions onto a freshly glow-discharged carbon coated copper grid. […]

[2] = Lanosterol eye drop formulation evaluation (stability, irritation, intraocular bioavailability); conditions: dissolved in pure aqueous solution
Source text: The optimal formulation was selected based on the stability of the active ingredient, irritation, and intraocular bioavailability of the eye drops.

cataractous rabbit lens = test: Treatment of isolated cataractous rabbit lenses; conditions: isolated rabbit lenses incubated with lanosterol for 6 days
Experimental: FIG. 9. […] Rabbit lenses (n=13) were dissected and incubated with lanosterol for 6 days and subsequently assessed for lens clarity and transparency. Pairs of photographs of each cataractous rabbit lens showing before and after treatment with scores underneath are shown.
Rabbits were euthanized by CO2 inhalation and lenses were immediately dissected and were treated with vehicle or lanosterol dissolved in vehicle to make 5 mM solutions. Lens tissues were incubated in these solutions for 6 days in the dark at room temperature. Cataract were examined under a microscope and then photographed. Degree of cataract was assessed using AREDS cataract grading system.

[3] = system: various cataract-causing crystallin mutants; test: Aggresome / intracellular aggregate formation of crystallin mutants in transfected cells (confocal microscopy); assay type: cell-based; conditions: 0-40 μM sterols in 2% DMSO, 2 h treatment then 12 h culture; lanosterol effect dose-dependent
Experimental: The effect of lanosterol or cholesterol on the aggresome formation of various crystallins was studied by transfecting the cells using plasmids containing various crystallin genes. The cells were cultivated for 24 h to enable efficient protein expression and aggresome formation. Then the cells were treated with 0-40 μM sterols in 2% DMSO. The cells treated with 2% DMSO were used as the control. After treatment for 2 h, the cells were moved to fresh DMEM medium containing 10% fetal bovine serum and further cultivated for 12 h. Then the cells were used for microscopy analysis.
The microscopy samples were prepared by washing the slips by phosphate buffered saline (PBS) three times. The cells were fixed with 4% paraformaldehyde for 40 min followed by three times washing with PBS. The cells were permeabilized with 0.1% Triton X-100 (Sigma) in PBS for 10 min and blocked with 5% normal goat serum in PBS for 1 h at 37° C. Immunostaining was carried out by adding mouse anti-Flag antibody (1:500) or anti-p62 antibody (1:200) in PBS buffer containing 5% normal goat serum and cultivated for 1 h at 37° C. Then the slips were washed three times with PBS, and further incubated with Alexa 649-conjugated goat anti-mouse IgG (1:250) for 1 h at ambient temperature. The nuclei were counterstained with Hoechst 33342. The mounted cells were analyzed using a Carl Zeiss LSM 710 confocal microscope.

CC(C)=CCC[C@@H](C)[C@H]1CC[C@@]2(C)C3=C(CC[C@]12C)[C@@]1(C)CC[C@H](O)C(C)(C)[C@@H]1CC3 [Lanosterol]
dissolution of crystallin aggregates by turbidity ([1]; 500 μM sterols in 500 μM DPPC liposome, 24 h, 0.2 mg/ml protein): could dissociate the aggregates
dissociation of aggregates of various WT and mutated crystallins [1]: can dissociate the preformed amyloid-like fibrils/aggregates
dissociation of aggregates of various WT and mutated crystallins ([1]; listed as lanosterol): could dissociate the aggregates
stability and solubility of lanosterol [2]: poor stability and low solubility
cataract severity and lens clarity (cataractous rabbit lens): reduced cataract severity and increased clarity
intracellular aggregation of various cataract-causing crystallin mutants [3]: significantly reduced intracellular aggregation
